The values below come from publication PMC9879440, “Heterozygous deletion of Gpr55 does not affect a hyperthermia-induced seizure, spontaneous seizures or survival in the Scn1a^+/^- mouse model of Dravet syndrome” (PLOS ONE, 2023).

The test system of one data set is F1.Scn1a+/- mice. The data set is described as follows: Hyperthermia-induced seizures in F1.Scn1a+/- mouse model of Dravet syndrome. In kind it is in vivo. Further details: key to Threshold temperature of individual mice for GTCS induced by hyperthermia: core body temperature in °C at first clonic convulsion. As to the method:
Hyperthermia-induced seizure experiments were conducted on male and female F1.Scn1a^+/- and F1.Scn1a^+/-;Gpr55^+/- mice at P14-16 as previously described. Briefly, a RET-3 rectal temperature probe was inserted and mice acclimated for 5 min before mouse core body temperature was elevated 0.5°C every 2 min until the onset of first clonic convulsion with loss of posture or until 42.5°C was reached. For hyperthermia-induced seizure experiments with CID2921524, mice received a single i.p. injection of vehicle or CID2921524 at an injection volume of 10 mL/kg following the 5 min acclimation period.
(§1) Normality of each dataset was assessed using the Shapiro-Wilk test. Concentrations of CID2921524 in plasma and brain at each time point were averaged and pharmacokinetic parameters were calculated by noncompartmental analysis as previously described. Seizure threshold temperatures were compared using Mantel-Cox logrank test. Spontaneous seizure data were analysed using two-way ANOVA (seizure frequency and seizure severity), Fisher’s exact test (proportion of mice seizure-free) or Mantel-Cox logrank test (survival). RT-ddPCR data were analysed using two-way ANOVA. All results p < 0.05 were considered statistically significant.

The nature of data set [1]: Pharmacokinetic analysis in mouse plasma and brain after a single i.p. injection. In kind it is in vivo. How it is done: A pharmacokinetic study was conducted for CID2921524 (MolPort; Riga, LVA) to determine the target experimental time point for the hyperthermia-induced seizure protocol. Male and female wildtype mice (P21-28) received a single intraperitoneal (i.p.) injection of 10 mg/kg CID2921524 in ethanol-Tween 80-saline (1:1:18) with an injection volume of 10 mL/kg. At selected time points, mice were anaesthetized with isoflurane and whole blood was collected via cardiac puncture. Plasma was isolated by centrifugation, whole brain was also collected and samples were stored at -80°C until assayed.
Plasma and brain samples were prepared for analysis of CID2921524 concentrations as previously described. Samples were assayed by LC-MS/MS using a Shimadzu Nexera ultra-HPLD coupled to a Shimadzu 8030 triple quadrupole mass spectrometer (Shimadzu Corp.; Kyoto, JPN) operated in positive electrospray ionization mode with multiple reaction monitoring with 376.3 > 121.1 and 376.2 > 77.0 mass transition pairs. Quantification was achieved by comparing experimental samples to standards prepared with known amounts of drug.
as §1

The subject of the next data set is GPR55. Further details: method as in PubChem AID 2013. The note with it: image-based HTS; ref PubChem AID 2013; read-out: IC50 value as GPR55 antagonist; cited from earlier work.
Details of data set [2]: method as in PMID 28973916. The note with it: cited from earlier work.
Setting [3] is: both sexes, brain, intraperitoneal, wildtype mice P21-28, 10 mg/kg i.p., n = 4, read-out: Brain concentration, average.
The mark [4] stands for this setting: both sexes, plasma, intraperitoneal, wildtype mice P21-28, 10 mg/kg i.p., n = 4, read-out: Plasma concentration, average.

The structures appear in SMILES notation. pIC50: −log10 of the molar value. Several values for one entry are separate records, joined by “and”; a condition that tells them apart may be missing. Identical values can stand only once. Like-named read-outs stand apart in the source and are kept apart here.

Turning to `COc1ccc(CNCCC(c2ccccc2)c2ccc3c(c2)OCO3)cc1` (centres unmarked) [CID2921524], the “Threshold temperature of individual mice for GTCS induced by hyperthermia” value in the data set with F1.Scn1a+/- mice (F1.Scn1a+/- mice P14-16, male and female, 10 mg/kg i.p. acute, one value per mouse, n = 12, core body temperature (°C), 10 mg/kg, in °C) is 41.2 and 40.3 and 40.2 and 40.8 and 41.5 and 40.7 and 38.9 and 39.9 and 41 and 40.6 and 39.6. In the data set with F1.Scn1a+/- mice (F1.Scn1a+/- mice, 10 mg/kg i.p. vs vehicle, Mantel-Cox logrank), the “effect on a hyperthermia-induced seizure (GTCS temperature threshold)” value is given as “no effect”. Moreover, the brain penetrance entry in data set [1] (10 mg/kg i.p.) is on record as “brain penetrant”. For the same molecule, the “total concentration achieved in the brain” value in data set [1] (10 mg/kg i.p., free-fraction unknown) is on record as ~ 5 μM. In addition, in data set [1] (both sexes, brain and plasma, ip, 10 mg/kg i.p., read-out: brain-plasma ratio (total exposure by AUC values)), the Kp turned out to be 1.4. In data set [1] (setting [3]), the concentration at 15 min worked out at 1820 ng/g, the concentration at 30 min is 1530 ng/g, the concentration at 60 min is 1210 ng/g and the concentration at 90 min came out at 1310 ng/g. Besides, the concentration at 120 min in data set [1] (setting [3]) amounted to 1550 ng/g. Further, in data set [1] (setting [4]), the concentration at 15 min amounted to 1960 ng/mL, the concentration at 30 min was 1420 ng/mL, the concentration at 60 min turned out to be 1370 ng/mL and the concentration at 90 min is 1020 ng/mL. Also, the concentration at 120 min in data set [1] (setting [4]) came to 1090 ng/mL. Besides, in data set [1] (both sexes, plasma, intraperitoneal, wildtype mice P21-28, 10 mg/kg i.p., 45 min, n = 4), the concentration at 45 min was 1400 ng/mL. In data set [1] (i.p. administration), the “absorption into plasma and brain” value is “rapidly absorbed”; the “half-lives in plasma and brain” value was “relatively long half-lives”. Also, in the data set on GPR55, the negative logarithm of the IC50 (pIC50) is 6.02.
On to `CCOc1ccc(N(CC)C(=O)c2nn(-c3ccc(OC)cc3)c(=O)c3c2c2ccccc2n3C)cc1` [CID16020064], for which, in data set [2], the brain penetrance result is given as “not brain penetrant”.
